Laboratory results: ChEMBL document CHEMBL2429834, “Potent histone deacetylase inhibitors derived from 4-(aminomethyl)-N-hydroxybenzamide with high selectivity for the HDAC6 isoform” (J Med Chem, 2013)

Legend:
Histone deacetylase 2 = Histone deacetylase 2 (Homo sapiens, UniProt Q92769); test: Inhibition of full length C-terminal His6x-tagged recombinant human HDAC2 expressed in baculovirus using Arg-His-Lys-Lys (Ac) as substrate after 2 hrs by fluorescence plate reader analysis
Histone deacetylase 4 = Histone deacetylase 4 (Homo sapiens, UniProt P56524); test: Inhibition of N-terminal GST-tagged recombinant human HDAC4 (627 to 1085) expressed in baculovirus using acetyl-Lys(trifluoroacetyl)-AMC as substrate after 2 hrs by fluorescence plate reader analysis
[1] = biological target: T1, Protein deacetylase HDAC6 (Homo sapiens, UniProt Q9UBN7); test: Inhibition of HDAC6 in human HeLa cells using acetyl tubulin as substrate assessed as Ac-tubulin accumulation in cytosol after 6 hrs by immunofluorescence assay
T1 sequence (Q9UBN7 whole entry): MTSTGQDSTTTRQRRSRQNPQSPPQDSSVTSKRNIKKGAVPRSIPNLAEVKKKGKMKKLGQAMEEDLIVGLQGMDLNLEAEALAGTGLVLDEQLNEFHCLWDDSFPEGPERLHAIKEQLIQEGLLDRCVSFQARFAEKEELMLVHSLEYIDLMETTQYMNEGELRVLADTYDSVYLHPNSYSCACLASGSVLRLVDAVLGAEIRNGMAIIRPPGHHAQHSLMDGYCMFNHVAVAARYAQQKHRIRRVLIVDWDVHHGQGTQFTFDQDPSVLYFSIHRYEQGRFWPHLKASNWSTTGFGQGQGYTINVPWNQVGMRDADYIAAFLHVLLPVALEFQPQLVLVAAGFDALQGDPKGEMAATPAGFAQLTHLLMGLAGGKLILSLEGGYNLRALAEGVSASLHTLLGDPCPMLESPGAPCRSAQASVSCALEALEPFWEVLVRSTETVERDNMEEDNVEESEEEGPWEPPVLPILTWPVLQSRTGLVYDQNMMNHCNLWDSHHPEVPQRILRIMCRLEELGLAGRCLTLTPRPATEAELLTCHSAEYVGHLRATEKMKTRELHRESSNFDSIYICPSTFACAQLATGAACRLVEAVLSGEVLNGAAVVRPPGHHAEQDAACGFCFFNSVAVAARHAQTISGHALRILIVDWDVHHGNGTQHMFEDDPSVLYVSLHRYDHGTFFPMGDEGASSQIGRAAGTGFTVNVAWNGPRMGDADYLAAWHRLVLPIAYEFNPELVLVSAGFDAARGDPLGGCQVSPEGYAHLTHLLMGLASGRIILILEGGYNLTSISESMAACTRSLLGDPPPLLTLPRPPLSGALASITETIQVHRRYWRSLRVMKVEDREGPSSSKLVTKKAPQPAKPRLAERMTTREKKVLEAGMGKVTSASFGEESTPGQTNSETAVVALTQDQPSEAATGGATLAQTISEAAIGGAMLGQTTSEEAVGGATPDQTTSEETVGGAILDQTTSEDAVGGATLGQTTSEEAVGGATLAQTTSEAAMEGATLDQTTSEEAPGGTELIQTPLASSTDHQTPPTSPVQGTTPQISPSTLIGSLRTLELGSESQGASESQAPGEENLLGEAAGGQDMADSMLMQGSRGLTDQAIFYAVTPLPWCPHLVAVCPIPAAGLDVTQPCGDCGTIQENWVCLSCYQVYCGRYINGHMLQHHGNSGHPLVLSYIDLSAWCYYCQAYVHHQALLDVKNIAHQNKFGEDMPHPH

[2] = biological target: T1, Protein deacetylase HDAC6; test: Inhibition of N-terminal GST-tagged recombinant HDAC6 (unknown origin) assessed as deacetylation of Ac-Arg-Gly-Lys (Ac) after 1 hr by fluorescence plate reader analysis in presence of trypsin
Histone deacetylase 7 = biological target: T2, Histone deacetylase 7 (Homo sapiens, UniProt Q8WUI4); test: Inhibition of N-terminal GST-tagged recombinant human HDAC7 (518) expressed in baculovirus using acetyl-Lys(trifluoroacetyl)-AMC as substrate after 1 hr by fluorescence plate reader analysis
T2 sequence (Q8WUI4 whole entry): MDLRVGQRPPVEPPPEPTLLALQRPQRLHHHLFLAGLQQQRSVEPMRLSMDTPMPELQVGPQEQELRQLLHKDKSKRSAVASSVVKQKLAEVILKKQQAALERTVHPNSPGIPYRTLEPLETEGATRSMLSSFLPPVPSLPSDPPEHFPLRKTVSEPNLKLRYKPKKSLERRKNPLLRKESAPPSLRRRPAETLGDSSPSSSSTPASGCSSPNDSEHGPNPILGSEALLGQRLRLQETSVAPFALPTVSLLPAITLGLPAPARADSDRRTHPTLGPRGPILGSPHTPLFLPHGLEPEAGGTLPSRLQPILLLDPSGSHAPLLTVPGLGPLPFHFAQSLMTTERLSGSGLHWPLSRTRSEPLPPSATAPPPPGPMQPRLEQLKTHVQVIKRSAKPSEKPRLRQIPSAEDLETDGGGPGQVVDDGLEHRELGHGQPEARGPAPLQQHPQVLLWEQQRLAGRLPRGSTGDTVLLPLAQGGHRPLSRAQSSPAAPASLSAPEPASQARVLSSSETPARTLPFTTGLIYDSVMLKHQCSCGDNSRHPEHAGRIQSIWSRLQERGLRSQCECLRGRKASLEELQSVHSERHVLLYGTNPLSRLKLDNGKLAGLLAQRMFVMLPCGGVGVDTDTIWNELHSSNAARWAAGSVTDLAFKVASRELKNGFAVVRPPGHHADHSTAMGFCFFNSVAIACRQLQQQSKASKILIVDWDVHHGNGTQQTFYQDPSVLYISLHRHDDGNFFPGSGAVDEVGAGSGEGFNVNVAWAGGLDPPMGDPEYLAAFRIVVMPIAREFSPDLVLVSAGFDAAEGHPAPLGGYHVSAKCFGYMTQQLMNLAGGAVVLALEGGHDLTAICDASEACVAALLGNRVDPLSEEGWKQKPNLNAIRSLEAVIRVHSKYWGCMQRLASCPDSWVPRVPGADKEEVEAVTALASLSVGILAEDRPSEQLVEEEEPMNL

Histone deacetylase 1 = Histone deacetylase 1 (Homo sapiens, UniProt Q13547); test: Inhibition of full length GST-tagged recombinant human HDAC1 expressed in baculovirus using Arg-His-Lys-Lys (Ac) as substrate after 2 hrs by fluorescence plate reader analysis
Histone deacetylase 1, sequence (Q13547 whole entry): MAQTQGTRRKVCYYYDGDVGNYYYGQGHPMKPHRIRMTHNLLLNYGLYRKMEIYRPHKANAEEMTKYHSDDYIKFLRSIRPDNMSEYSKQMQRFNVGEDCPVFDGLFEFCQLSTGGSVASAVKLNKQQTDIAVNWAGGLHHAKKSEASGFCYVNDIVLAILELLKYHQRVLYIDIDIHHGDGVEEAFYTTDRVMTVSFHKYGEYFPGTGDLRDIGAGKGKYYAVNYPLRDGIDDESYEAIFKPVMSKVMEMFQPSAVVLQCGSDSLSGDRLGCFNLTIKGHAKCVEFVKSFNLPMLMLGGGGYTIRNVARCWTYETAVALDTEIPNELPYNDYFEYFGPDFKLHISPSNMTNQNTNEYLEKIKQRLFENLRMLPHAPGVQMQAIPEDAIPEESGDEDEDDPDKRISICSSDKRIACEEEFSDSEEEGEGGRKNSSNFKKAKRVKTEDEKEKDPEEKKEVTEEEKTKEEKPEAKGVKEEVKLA

Histone deacetylase 4, sequence (P56524 whole entry): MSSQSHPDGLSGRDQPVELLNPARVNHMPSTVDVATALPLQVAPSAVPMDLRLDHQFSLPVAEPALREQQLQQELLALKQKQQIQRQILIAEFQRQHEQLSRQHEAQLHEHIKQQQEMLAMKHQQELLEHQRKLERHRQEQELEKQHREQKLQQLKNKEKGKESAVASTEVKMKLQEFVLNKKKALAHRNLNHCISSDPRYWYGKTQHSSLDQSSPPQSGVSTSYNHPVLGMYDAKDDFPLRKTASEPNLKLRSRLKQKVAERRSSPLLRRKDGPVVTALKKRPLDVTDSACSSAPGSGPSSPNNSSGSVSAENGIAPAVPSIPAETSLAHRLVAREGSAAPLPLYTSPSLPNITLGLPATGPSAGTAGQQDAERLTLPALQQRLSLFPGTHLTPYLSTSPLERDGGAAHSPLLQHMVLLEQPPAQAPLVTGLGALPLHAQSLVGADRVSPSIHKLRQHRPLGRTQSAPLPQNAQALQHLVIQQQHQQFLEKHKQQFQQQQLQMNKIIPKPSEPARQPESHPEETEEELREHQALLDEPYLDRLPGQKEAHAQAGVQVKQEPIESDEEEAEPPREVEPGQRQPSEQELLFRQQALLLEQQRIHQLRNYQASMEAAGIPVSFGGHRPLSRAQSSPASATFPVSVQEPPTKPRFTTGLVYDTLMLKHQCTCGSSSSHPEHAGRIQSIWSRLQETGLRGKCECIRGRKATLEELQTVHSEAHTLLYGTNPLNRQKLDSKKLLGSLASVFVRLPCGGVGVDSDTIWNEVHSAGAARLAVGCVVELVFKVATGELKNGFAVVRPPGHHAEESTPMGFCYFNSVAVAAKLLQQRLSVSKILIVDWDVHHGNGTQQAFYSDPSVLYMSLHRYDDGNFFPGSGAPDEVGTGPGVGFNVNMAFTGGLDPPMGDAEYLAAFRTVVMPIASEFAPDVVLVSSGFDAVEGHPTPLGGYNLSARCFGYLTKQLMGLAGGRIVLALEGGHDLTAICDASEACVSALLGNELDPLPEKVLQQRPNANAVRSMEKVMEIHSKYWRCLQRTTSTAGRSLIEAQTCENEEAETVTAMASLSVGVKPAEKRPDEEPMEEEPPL
Histone deacetylase 2, sequence (Q92769 whole entry): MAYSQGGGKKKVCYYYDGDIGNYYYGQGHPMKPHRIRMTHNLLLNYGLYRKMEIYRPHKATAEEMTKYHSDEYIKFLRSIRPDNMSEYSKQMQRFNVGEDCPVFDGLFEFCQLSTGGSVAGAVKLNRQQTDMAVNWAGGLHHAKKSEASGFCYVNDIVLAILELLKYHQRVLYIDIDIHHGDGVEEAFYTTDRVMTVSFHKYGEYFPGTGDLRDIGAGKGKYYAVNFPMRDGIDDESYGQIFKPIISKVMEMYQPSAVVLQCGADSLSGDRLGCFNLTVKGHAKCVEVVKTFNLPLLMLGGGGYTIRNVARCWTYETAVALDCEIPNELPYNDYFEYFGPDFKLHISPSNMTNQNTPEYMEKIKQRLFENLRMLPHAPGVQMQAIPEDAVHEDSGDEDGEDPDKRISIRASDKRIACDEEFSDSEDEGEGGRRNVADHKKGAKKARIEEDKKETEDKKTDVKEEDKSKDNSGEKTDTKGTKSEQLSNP

Row | SMILES | IC50 (Histone deacetylase 2) | IC50 (Histone deacetylase 4) | IC50 [1] | IC50 [2] | IC50 (Histone deacetylase 7) | IC50 (Histone deacetylase 1)
1 | Cn1cccc1C(=O)N1CCc2cc(C(=O)NO)ccc2C1 | > 50 µM | > 50 µM | 0.21 µM | 0.036 µM | > 50 µM | 45 µM
2 | CC(C)(C)C(=O)N1Cc2ccc(C(=O)NO)cc2C1 | > 50 µM | > 50 µM | 0.56 µM | 0.089 µM | > 50 µM | > 50 µM
3 | CC(C)(C)C(=O)N1CCc2cc(C(=O)NO)ccc2C1 | > 50 µM | > 50 µM | 0.43 µM | 0.052 µM | > 50 µM | > 50 µM
4 | Cn1cccc1C(=O)NCc1ccc(C(=O)NO)cc1 | 16 µM | 15 µM | 0.46 µM | 0.019 µM | 4.6 µM | 5.8 µM
5 | Cn1cccc1C(=O)N1Cc2ccc(C(=O)NO)cc2C1 | > 50 µM | > 50 µM | 0.34 µM | 0.04 µM | > 50 µM | > 50 µM
6 | Cn1cccc1C(=O)N1CCCc2cc(C(=O)NO)ccc2C1 | > 50 µM | > 50 µM | 1.48 µM | 0.26 µM | > 50 µM | > 50 µM
